Where a SMILES comes first, the peptide text is derived from it. Where no end group is shown, it is not given here. [ ]: non-standard residue; d: D form.
Key:
Type in all cases: cell-based
[1] = target: T1, FPR (Homo sapiens, UniProt P21462); test: [Ca2+]i increase in FPR-expressing RBL-2H3 cells (fura-2); details: for EC50 (nM), intracellular calcium increase: fura-2 loaded
T1 construct: expressed in transfected cells; host or cells: RBL-2H3 (rat basophilic leukemia) cells, G418-selected
T1 sequence (P21462 1-350): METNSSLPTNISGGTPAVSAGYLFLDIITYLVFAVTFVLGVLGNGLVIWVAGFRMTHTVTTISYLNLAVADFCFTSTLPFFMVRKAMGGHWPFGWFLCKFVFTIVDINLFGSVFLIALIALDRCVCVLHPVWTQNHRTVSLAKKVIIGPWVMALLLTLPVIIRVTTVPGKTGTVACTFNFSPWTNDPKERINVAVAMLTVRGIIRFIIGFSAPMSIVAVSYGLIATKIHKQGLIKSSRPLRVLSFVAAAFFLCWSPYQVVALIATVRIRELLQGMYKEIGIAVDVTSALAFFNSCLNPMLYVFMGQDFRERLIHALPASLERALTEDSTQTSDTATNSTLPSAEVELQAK

[2] = target: T2, FPRL1 (Homo sapiens, UniProt P25090); test: [Ca2+]i increase in FPRL1-expressing RBL-2H3 cells (fura-2); details: for EC50: fura-2 loaded, read-out: EC50 (nM), intracellular calcium increase
T2 construct: expressed in transfected cells; host or cells: RBL-2H3 (rat basophilic leukemia) cells, G418-selected
T2 sequence (P25090 1-351): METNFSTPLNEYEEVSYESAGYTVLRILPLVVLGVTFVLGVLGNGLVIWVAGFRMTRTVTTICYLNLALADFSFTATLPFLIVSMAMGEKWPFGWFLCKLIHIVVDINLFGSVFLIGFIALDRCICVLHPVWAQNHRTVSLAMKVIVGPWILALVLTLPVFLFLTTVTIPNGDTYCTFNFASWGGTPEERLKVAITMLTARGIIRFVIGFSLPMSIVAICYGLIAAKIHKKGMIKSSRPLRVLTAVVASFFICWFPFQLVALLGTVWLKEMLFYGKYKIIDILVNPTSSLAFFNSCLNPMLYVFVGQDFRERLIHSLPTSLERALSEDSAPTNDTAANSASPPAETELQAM
Protocol: […] The level of [Ca^2+]i was determined fluorometrically by Grynkiewicz's method using fura-2/AM (15). Briefly, prepared cells were incubated with 3 μM fura-2/AM at 37° C. for 50 min in a fresh serum-free RPMI 1640 medium under continuous stirring. 2×10^6 cells were aliquoted for each assay in Ca^2+-free Locke's solution (154 mM NaCl, 5.6 mM KCl, 1.2 mM MgCl2, 5 mM HEPES, pH 7.3, 10 mM glucose, and 0.2 mM EGTA). Fluorescence changes at the dual excitation wavelengths of 340 nm and 380 nm and the emission wavelength of 500 nm were measured, and the calibrated fluorescence ratio was translated into [Ca^2+]i. The peak level of the increased [Ca^2+]i was monitored.
[…] The level of [Ca^2+]i was determined by the same procedures as above. The peak level of the increased [Ca^2+]i was monitored.

[3] = tested on: human neutrophils; test: Superoxide generation in human neutrophils (cytochrome c reduction); details: for superoxide generation: 10 μM concentration; for O^2− (nmol/10^6 cells), superoxide generation: cytochrome c reduction
Protocol: Peripheral blood leukocyte concentrates were donated by the Ulsan Red Cross Blood Center (Ulsan, Korea). Human neutrophils were isolated according to the standard procedures of dextran sedimentation, hypotonic lysis of erythrocytes, and a lymphocyte separation medium gradient as described above (9). The isolated human neutrophils were then used promptly.
The activity of the peptides, WKYMVm, peptides of SEQ ID NOs: 1 to 24, and wkymvm on superoxide generation in human neutrophils was measured. Superoxide anion generation was quantified by measuring reduction of cytochrome c using a microtiter 96-well plate ELISA reader (Bio-Tekinstruments, EL312e, Winooski, Vt.) as described (14). The human neutrophils (1×10^6 cells/100 μl of RPMI 1640 medium per well of a 96-well plate) were preincubated with 50 μM cytochrome c at 37° C. for 1 min and then incubated with the indicated concentrations of peptides. The superoxide generation was measured as a change in light absorption at 550 nm over 5 minutes at 1 min intervals. From at least four independent experiments, peptides with active amino acids at each position were chosen.

[4] = target: T2, FPRL1; test: Exocytosis: β-hexosaminidase secretion in FPRL1-expressing RBL-2H3 cells; details: FPRL1 cells; 10 μM of each peptide (WKYMVm also various concentrations)
Protocol: Granule secretion is one of the most important function of mast cells (20). The effect of WKYMVm on granule secretion was checked by measuring β-hexosaminidase secretion as described above (18). Briefly, RBL-2H3 cells (2×10^5/well) expressing FPR or FPRL1 were cultured overnight in a 24-well tissue culture plate. The cells were washed twice with Tyrode's buffer (137 mM NaCl, 12 mM NaHCO3, 5.6 mM glucose, 2.7 mM KCl, 1 mM CaCl2, 0.5 mM MgCl2, 0.4 mM NaH2PO4, 0.1g/100 ml BSA, and 25 mM HEPES, pH 7.4) and stimulated with each peptide. Various concentrations of WKYMVm were treated in FPR- or FPRL1-expressing RBL-2H3 cells (FIG. 5A). 1 μM of WKYMVm was used to stimulate two cell lines in the absence or presence of 10 μM BAPTA/AM (FIG. 5B). The reaction was terminated 20 min after stimulation by placing the plate on ice. Secretion of β-hexosaminidase into the medium was determined by incubating 50 μl of supernatant or cell lysate with 25 μl of 5 mM p-nitrophenyl-N-acetyl-β-D-glucosamide in 0.1 M sodium citrate buffer (pH 3.8) at 37° C. for 2 hr. At the end of the incubation, 50 μl of 0.4 M Na2CO3 were added. Absorbance was monitored at 405 nm. Data are means ±S.E. of a single representative of three experiments performed in triplicate. Values (means ±S.E.) were expressed as a percent of total β-hexosaminidase present in the cells.
10 μM of each peptide was treated in FPR- (FIG. 6A) or FPRL1-expressing RBL-2H3 cells (FIG. 6B). The peptide-induced secretion of β-hexosaminidase was determined as above. Data are means ±S.E. of a single representative of three experiments performed in triplicate.

| Molecule | EC50 (nM), intracellular calcium increase [1] | EC50 [2] [nM] | [Ca^2+]i increasing activity [2] | superoxide generating activity ([3]; 100 nM of peptides) | superoxide generation [3] | O^2− (nmol/10^6 cells), superoxide generation ([3]; peptide 100 nM) [nmol/10^6 cells] | O^2− (nmol/10^6 cells), superoxide generation ([3]; peptide 10 μM) [nmol/10^6 cells] | [Ca^2+]i increasing activity [1] | granule secretion / β-hexosaminidase release (words) [4] |
| --- | --- | --- | --- | --- | --- | --- | --- | --- | --- |
| CSCC[C@H](NC(=O)[C@H](Cc1ccc(O)cc1)NC(=O)[C@@H](N)CCCCN)C(=O)N[C@H](C(N)=O)C(C)C [KYMV-NH2, Lys-Tyr-Met-Val-NH2] (H-KYMV-NH2) | inactive | > 30000 | – | – | – | – | – | – | – |
| CSCC[C@H](N)C(=O)N[C@H](C(=O)N[C@H](CCSC)C(N)=O)C(C)C [MVm-NH2, Met-Val-D-Met-NH2] (H-Met-Val-[dM]-NH2) | inactive | > 30000 | – | – | – | – | – | – | – |
| CSCC[C@H](NC(=O)[C@H](Cc1ccccc1)NC(=O)[C@H](CCCCN)NC(=O)[C@@H](N)Cc1c[nH]c2ccccc12)C(=O)N[C@H](C(=O)N[C@H](CCSC)C(N)=O)C(C)C [WKFMVm-NH2, Trp-Lys-Phe-Met-Val-D-Met-NH2] (H-WKFMV[dM]-NH2; N-terminus assumed) | – | – | higher affinity to FPRL1 | stimulated superoxide generation | more potent activity than WKYMVm | 37.3 ± 3.56 | 60.2 ± 5.57 | more improved affinity for the FPR against the peptide WKYMVm | – |
| CSCC[C@H](NC(=O)[C@H](Cc1c[nH]c2ccccc12)NC(=O)[C@H](CCCCN)NC(=O)[C@@H](N)Cc1c[nH]c2ccccc12)C(=O)N[C@H](C(=O)N[C@H](CCSC)C(N)=O)C(C)C [WKWMVm-NH2, Trp-Lys-Trp-Met-Val-D-Met-NH2] (H-WKWMV[dM]-NH2; N-terminus assumed) | – | – | higher affinity to FPRL1 | – | more potent activity than WKYMVm | 11.5 ± 0.97 | 65.0 ± 12.10 | more improved affinity for the FPR against the peptide WKYMVm | – |
| CSCC[C@H](NC(=O)[C@H](Cc1ccc(O)cc1)NC(=O)[C@H](CCCCN)NC(=O)[C@@H](N)Cc1c[nH]c2ccccc12)C(=O)NCC(=O)N[C@H](CCSC)C(N)=O [WKYMGm-NH2, Trp-Lys-Tyr-Met-Gly-D-Met-NH2] (H-WKYMG[dM]-NH2; N-terminus assumed) | inactive | – | showed [Ca^2+]i-increasing activity in FPRL1 cells, with a little lower affinity to FPRL1 | – | – | 1.1 ± 0.05 | 27.3 ± 2.61 | did not effect a [Ca^2+]i increase until 20 μM treatment | – |
| CSCC[C@H](NC=O)C(=O)N[C@@H](CC(C)C)C(=O)N[C@@H](Cc1ccccc1)C(=O)O [fMLF, N-formyl-methionyl-leucyl-phenylalanine] | – | – | – | – | – | – | – | – | but not fMLF or wkymvm, stimulated granule secretion |
| Trp-Lys-Tyr-Met-(Phe/Trp)-D-Met-NH2 [WKYM(F/W)m-NH2] | – | – | higher affinity to FPRL1 | – | – | 6.1 ± 0.77 | 45.6 ± 7.76 | – | – |

More lines, main results first:

| EC50 (nM), intracellular calcium increase [1] | EC50 [2] [nM] | [Ca^2+]i increasing activity [2] | Molecule | superoxide generating activity ([3]; 100 nM of peptides) | superoxide generation [3] | O^2− (nmol/10^6 cells), superoxide generation ([3]; peptide 100 nM) [nmol/10^6 cells] | O^2− (nmol/10^6 cells), superoxide generation ([3]; peptide 10 μM) [nmol/10^6 cells] | [Ca^2+]i increasing activity [1] | granule secretion / β-hexosaminidase release (words) [4] |
| --- | --- | --- | --- | --- | --- | --- | --- | --- | --- |
| – | – | higher affinity to FPRL1 | CSCC[C@H](NC(=O)[C@H](Cc1ccc(O)cc1)NC(=O)[C@H](CCCCN)NC(=O)[C@@H](N)Cc1c[nH]c2ccccc12)C(=O)N[C@@H](Cc1ccc(O)cc1)C(=O)N[C@H](CCSC)C(N)=O [WKYMYm-NH2, Trp-Lys-Tyr-Met-Tyr-D-Met-NH2] (H-WKYMY[dM]-NH2; N-terminus assumed) | – | – | 25.8 ± 3.89 | 42.9 ± 3.34 | – | – |
| inactive | – | – | WKYMVV-NH2 [WKYMVV-NH2, Trp-Lys-Tyr-Met-Val-Val-NH2] | – | – | 5.0 ± 0.21 | 36.3 ± 2.29 | – | – |
| inactive | – | – | WKYMVW-NH2 [WKYMVW-NH2, Trp-Lys-Tyr-Met-Val-Trp-NH2] | – | more potent activity than WKYMVm | 11.5 ± 1.62 | 56.8 ± 4.60 | – | – |
